From US6992169B2, “Carrier based drug delivery system” (Cyclacel Limited, priority 1998, dated 2006)

Experiments:
[1] = tested on: HaCaT cells; assay: In vitro cytotoxic activity, inhibition of cell proliferation, ATP bioluminescence (ViaLight); assay type: cell-based, human
Protocol: (§1) This compound (abbreviated ‘MTX-Pen’ in the tables below) was evaluated for its ability to inhibit cell proliferation of normal (immortalised) human cells (HaCaT cells, Tables 1 & 2) and a human colorectal cancer cell line (HT29, Table 3).
(§2) Assay procedure—Cells were seeded into 96-well plates at 2,500 cells/well in DMEM with 10% FCS and antibiotics. After overnight incubation, test compound dilutions in cell medium were prepared and were added to the cells. Samples were taken 1, 2, 3, and 4 days after compound addition. Nucleotide Releasing Reagent (LumiTech ViaLight kit) was added in order to lyse the cells and release ATP. After incubation at room temperature (5 min), the mixtures were transferred to opaque 96-well plates and stored at −20° C. until analysis. After loading plates into a luminometer (Lucy 1, Labtech International), ATP Monitoring Reagent (20 μL/well, LumiTech ViaLight kit) was added to each well successively and light intensity was measured immediately. Six readings were taken per sample. Each assay point was established using six replicates and appropriate controls. […] Statistically significant results in the tables below are printed in bold face.
(§3) This compound (abbreviated ‘MTX-Pen’ in tables below) was evaluated for its ability to inhibit cell proliferation of normal (immortalised) human cells (HaCaT cells, Tables 1 & 2) and a human colorectal cancer cell line (HT29, Table 3).
(§4) Assay procedure—Cells were seeded into 96-well plates at 2,500 cells/well in DMEM with 10% foetal calf serum and antibiotics. After overnight incubation, test compound dilutions in cell medium were prepared and were added to the cells. Samples were taken 1, 2, 3, and 4 days after compound addition. Nucleotide Releasing Reagent (LumiTech ViaLight kit) was added in order to lyse the cells and release ATP. After incubation at room temperature (5 min), the mixtures were transferred to opaque 96-well plates and stored at −20° C. until analysis. After loading plates into a luminometer (Lucy 1, Labtech International), ATP Monitoring Reagent ([…], LumiTech ViaLight kit) was added to each well successively and light intensity was measured immediately. Six readings were taken per sample. Each assay point was established using six replicates and appropriate controls.

[2] = tested on: HT29; assay: as above; assay type: cell-based, human
Protocol: as §1, §2, §3, §4

[3] = Table 1, HaCaT, Dose 0.2 μM, Day 1
[4] = Table 1, HaCaT, Dose 0.2 μM, Day 2
[5] = Table 1, HaCaT, Dose 0.2 μM, Day 3
[6] = Table 1, HaCaT, Dose 0.2 μM, Day 4
[7] = Table 1, HaCaT, Dose 0.5 μM, Day 1
[8] = Table 1, HaCaT, Dose 0.5 μM, Day 2
[9] = Table 1, HaCaT, Dose 0.5 μM, Day 3
[10] = Table 1, HaCaT, Dose 0.5 μM, Day 4
[11] = Table 1, HaCaT, Dose 1.5 μM, Day 1
[12] = Table 1, HaCaT, Dose 1.5 μM, Day 2
[13] = Table 1, HaCaT, Dose 1.5 μM, Day 3
[14] = Table 1, HaCaT, Dose 1.5 μM, Day 4
[15] = Table 1, HaCaT, Dose 4.4 μM, Day 1
[16] = Table 1, HaCaT, Dose 4.4 μM, Day 2
[17] = Table 1, HaCaT, Dose 4.4 μM, Day 3
[18] = Table 1, HaCaT, Dose 4.4 μM, Day 4
[19] = Table 1, HaCaT, Dose 13.3 μM, Day 1
[20] = Table 1, HaCaT, Dose 13.3 μM, Day 2
[21] = Table 1, HaCaT, Dose 13.3 μM, Day 3
[22] = Table 1, HaCaT, Dose 13.3 μM, Day 4
[23] = Table 1, HaCaT, Dose 40.0 μM, Day 1
[24] = Table 1, HaCaT, Dose 40.0 μM, Day 2
[25] = Table 1, HaCaT, Dose 40.0 μM, Day 3
[26] = Table 1, HaCaT, Dose 40.0 μM, Day 4

H-Ala-Arg-Gln-Ile-Lys-Ile-Trp-Phe-Gln-Asn-Arg-Arg-Met-Lys-Trp-Lys-Lys-OH (H-ARQIKIWFQNRRMKWKK-OH) [Pen, the free vector]
% Cell Death [1, 3]: 26% | % Cell Death [1, 4]: 0% | % Cell Death [1, 5]: −3% | % Cell Death [1, 6]: 21% | % Cell Death [1, 7]: 6% | % Cell Death [1, 8]: −6% | % Cell Death [1, 9]: −29% | % Cell Death [1, 10]: −26% | % Cell Death [1, 11]: 16% | % Cell Death [1, 12]: −31% | % Cell Death [1, 13]: 2% | % Cell Death [1, 14]: −14% | % Cell Death [1, 15]: 8% | % Cell Death [1, 16]: −4% | % Cell Death [1, 17]: −1% | % Cell Death [1, 18]: 10% | % Cell Death [1, 19]: 18% | % Cell Death [1, 20]: 0% | % Cell Death [1, 21]: −17% | % Cell Death [1, 22]: −6% | % Cell Death [1, 23]: 16% | % Cell Death [1, 24]: −22% | % Cell Death [1, 25]: 5% | % Cell Death [1, 26]: 12%

{[4[N-(2,4-Diamino-6-pteridinyl-methyl)-N-methylamino]benzoyl]-Glu-Gly-βAla}4-Lys2-Lys-βAla-Arg-Gln-Ile-Lys-Ile-Trp-Phe-Gln-Asn-Arg-Arg-Met-Lys-Trp-Lys-Lys-OH [MTX-Pen]
% Cell Death [1, 3]: 14% | % Cell Death [1, 4]: 21% | % Cell Death [1, 5]: 20% | % Cell Death [1, 6]: 51% | % Cell Death [1, 7]: −19% | % Cell Death [1, 8]: 2% | % Cell Death [1, 9]: 29% | % Cell Death [1, 10]: 49% | % Cell Death [1, 11]: −24% | % Cell Death [1, 12]: 82% | % Cell Death [1, 13]: 82% | % Cell Death [1, 14]: 88% | % Cell Death [1, 15]: −8% | % Cell Death [1, 16]: 45% | % Cell Death [1, 17]: 95% | % Cell Death [1, 18]: 98% | % Cell Death [1, 19]: −42% | % Cell Death [1, 20]: 63% | % Cell Death [1, 21]: 97% | % Cell Death [1, 22]: 98% | % Cell Death [1, 23]: 29% | % Cell Death [1, 24]: 82% | % Cell Death [1, 25]: 97% | % Cell Death [1, 26]: 98% | % Cell Death ([1]; Table 2, HaCaT, Dose 0.5 μM, Day 1): 13% | % Cell Death ([1]; Table 2, HaCaT, Dose 0.5 μM, Day 2): 24% | % Cell Death ([1]; Table 2, HaCaT, Dose 0.5 μM, Day 3): −27% | % Cell Death ([1]; Table 2, HaCaT, Dose 0.5 μM, Day 4): 2% | % Cell Death ([1]; Table 2, HaCaT, Dose 1.5 μM, Day 1): 19% | % Cell Death ([1]; Table 2, HaCaT, Dose 1.5 μM, Day 2): 12% | % Cell Death ([1]; Table 2, HaCaT, Dose 1.5 μM, Day 3): −16% | % Cell Death ([1]; Table 2, HaCaT, Dose 1.5 μM, Day 4): 17% | % Cell Death ([1]; Table 2, HaCaT, Dose 4.4 μM, Day 1): 15% | % Cell Death ([1]; Table 2, HaCaT, Dose 4.4 μM, Day 2): 52% | % Cell Death ([1]; Table 2, HaCaT, Dose 4.4 μM, Day 3): 95% | % Cell Death ([1]; Table 2, HaCaT, Dose 4.4 μM, Day 4): 88% | % Cell Death ([1]; Table 2, HaCaT, Dose 13.3 μM, Day 1): 27% | % Cell Death ([1]; Table 2, HaCaT, Dose 13.3 μM, Day 2): 87% | % Cell Death ([1]; Table 2, HaCaT, Dose 13.3 μM, Day 3): 95% | % Cell Death ([1]; Table 2, HaCaT, Dose 13.3 μM, Day 4): 94% | % Cell Death ([1]; Table 2, HaCaT, Dose 40.0 μM, Day 1): 42% | % Cell Death ([1]; Table 2, HaCaT, Dose 40.0 μM, Day 2): 88% | % Cell Death ([1]; Table 2, HaCaT, Dose 40.0 μM, Day 3): 95% | % Cell Death ([1]; Table 2, HaCaT, Dose 40.0 μM, Day 4): 94% | % Cell Death ([2]; Table 3, HT 29, Dose 0.5 μM, Day 1): 14% | % Cell Death ([2]; Table 3, HT 29, Dose 0.5 μM, Day 2): 8% | % Cell Death ([2]; Table 3, HT 29, Dose 0.5 μM, Day 3): 17% | % Cell Death ([2]; Table 3, HT 29, Dose 0.5 μM, Day 4): 16% | % Cell Death ([2]; Table 3, HT 29, Dose 1.5 μM, Day 1): 16% | % Cell Death ([2]; Table 3, HT 29, Dose 1.5 μM, Day 2): 9% | % Cell Death ([2]; Table 3, HT 29, Dose 1.5 μM, Day 3): 15% | % Cell Death ([2]; Table 3, HT 29, Dose 1.5 μM, Day 4): 45% | % Cell Death ([2]; Table 3, HT 29, Dose 4.4 μM, Day 1): 10% | % Cell Death ([2]; Table 3, HT 29, Dose 4.4 μM, Day 2): 6% | % Cell Death ([2]; Table 3, HT 29, Dose 4.4 μM, Day 3): 46% | % Cell Death ([2]; Table 3, HT 29, Dose 4.4 μM, Day 4): 77% | % Cell Death ([2]; Table 3, HT 29, Dose 13.3 μM, Day 1): 3% | % Cell Death ([2]; Table 3, HT 29, Dose 13.3 μM, Day 2): 45% | % Cell Death ([2]; Table 3, HT 29, Dose 13.3 μM, Day 3): 88% | % Cell Death ([2]; Table 3, HT 29, Dose 13.3 μM, Day 4): 96% | % Cell Death ([2]; Table 3, HT 29, Dose 40.0 μM, Day 1): 31% | % Cell Death ([2]; Table 3, HT 29, Dose 40.0 μM, Day 2): 79% | % Cell Death ([2]; Table 3, HT 29, Dose 40.0 μM, Day 3): 96% | % Cell Death ([2]; Table 3, HT 29, Dose 40.0 μM, Day 4): 98%
